# Measured values: patent publication US4504580A, “Antibiotics produced by fermentation of a novel strain of Streptomyces hygroscopicus” (Bristol-Myers Company, priority 1983, dated 1985)
# Legend:
# [1] = tested on: Micrococcus flavus D12; assay: MIC by serial two-fold agar dilution, M. flavus D12; assay type: cell-based; conditions: Micrococcus flavus, D12; Table 7; Mueller-Hinton agar; read-out: MIC
# Outline: (§1)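 Inocula, 10^4-diluted overnight broth cultures, are applied via Steer's multi-inoculating device to agar containing serially halved compound concentrations.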
# [2] = tested on: Escherichia coli Juhl; assay: MIC by serial two-fold agar dilution, E. coli Juhl; assay type: cell-based; conditions: Escherichia coli; Table 7; Mueller-Hinton agar; read-out: MIC
# Outline: as §1
# [3] = tested on: Klebsiella pneumoniae D11; assay: MIC by serial two-fold agar dilution, K. pneumoniae D11; assay type: cell-based; conditions: Klebsiella pneumoniae, D11; Table 7; Mueller-Hinton agar; read-out: MIC
# Outline: as §1
# [4] = tested on: Proteus vulgaris A9436; assay: MIC by serial two-fold agar dilution, P. vulgaris A9436; assay type: cell-based; conditions: Proteus vulgaris, A9436; Table 7; Mueller-Hinton agar; read-out: MIC
# Outline: as §1
# [5] = tested on: Proteus mirabilis A9554; assay: MIC by serial two-fold agar dilution, P. mirabilis A9554; assay type: cell-based; conditions: Proteus mirabilis, A9554; Table 7; Mueller-Hinton agar; read-out: MIC
# Outline: as §1
# [6] = tested on: Proteus morganii A9553; assay: MIC by serial two-fold agar dilution, P. morganii A9553; assay type: cell-based; conditions: Morganella morganii, A9553; Table 7; Mueller-Hinton agar; read-out: MIC
# Outline: as §1
# [7] = tested on: Proteus rettgeri A15167; assay: MIC by serial two-fold agar dilution, P. rettgeri A15167; assay type: cell-based; conditions: Providencia rettgeri, A15167; Table 7; Mueller-Hinton agar; read-out: MIC
# Outline: as §1
# [8] = tested on: Pseudomonas aeruginosa D15; assay: MIC by serial two-fold agar dilution, P. aeruginosa D15; assay type: cell-based; conditions: Pseudomonas aeruginosa, D15; Table 7; Mueller-Hinton agar; read-out: MIC
# Outline: as §1
# [9] = tested on: Pseudomonas aeruginosa A9930; assay: MIC by serial two-fold agar dilution, P. aeruginosa A9930; assay type: cell-based; conditions: Pseudomonas aeruginosa, A9930; Table 7; Mueller-Hinton agar; read-out: MIC
# Outline: as §1
# [10] = tested on: Serratia marcescens A20019; assay: MIC by serial two-fold agar dilution, S. marcescens A20019; assay type: cell-based; conditions: Serratia marcescens, A20019; Table 7; Mueller-Hinton agar; read-out: MIC
# Outline: as §1
# [11] = tested on: Streptococcus pyogenes A20201; assay: MIC by serial two-fold agar dilution, S. pyogenes A20201; assay type: cell-based; conditions: Streptococcus pyogenes, A20201; Table 8; GC medium; read-out: MIC
# Description: (§2) The minimum inhibitory concentrations (MIC) of Bu-2659A, B, C, D and E were determined for a variety of gram-positive and gram-negative bacteria by the serial two-fold agar dilution method using the Steer's multi-inoculating apparatus. The inoculum was standardized as a 10^4 dilution of an overnight culture of the test organisms in Heart Infusion Broth (Difco). […] Reference antibiotics utilized in these tests included commercially available neomycin as well as its components, neomycins B and C [as used herein, the term "neomycin" means the commercial product containing neomycins B and C at an approximate ratio of 7:3], paromomycin [the commercial product containing >90% of paromomycin I and <10% of paromomycin II] and ribostamycin.
# [12] = tested on: Neisseria gonorrhoeae A20143; assay: MIC by serial two-fold agar dilution, N. gonorrhoeae A20143; assay type: cell-based; conditions: Neisseria gonorrhoeae, A20143; Table 8; GC medium; read-out: MIC
# Description: as §2
# [13] = tested on: Haemophilus influenzae A9729; assay: MIC by serial two-fold agar dilution, H. influenzae A9729; assay type: cell-based; conditions: Haemophilus influenzae, A9729; Table 8; GC medium; read-out: MIC
# Description: as §2
# [14] = tested on: Mycobacterium smegmatis 607; assay: MIC by serial two-fold agar dilution, M. smegmatis 607; assay type: cell-based; conditions: Mycolicibacterium smegmatis, 607; Table 8; No. 1001 medium; read-out: MIC
# Description: as §2
# [15] = tested on: Escherichia coli JR66/W677; assay: MIC, aminoglycoside-resistant E. coli JR66/W677; assay type: cell-based; conditions: Escherichia coli, JR66/W677
# Description: as §2
# [16] = tested on: Escherichia coli JR88; assay: MIC, aminoglycoside-resistant E. coli JR88; assay type: cell-based; conditions: Escherichia coli, JR88
# Outline: as §1
# [17] = tested on: Escherichia coli JR35/C600; assay: MIC, aminoglycoside-resistant E. coli JR35/C600; assay type: cell-based; conditions: Escherichia coli, JR35/C600
# Description: as §2
# [18] = tested on: Escherichia coli NR79/W677; assay: MIC, aminoglycoside-resistant E. coli NR79/W677; assay type: cell-based; conditions: Escherichia coli, NR79/W677
# Description: as §2
# [19] = tested on: Pseudomonas aeruginosa A20601; assay: MIC, aminoglycoside-resistant P. aeruginosa A20601; assay type: cell-based; conditions: Pseudomonas aeruginosa, A20601; Table 9; inactivating enzymes AAC(3)-I, APH(3')-II; Mueller-Hinton agar; read-out: MIC
# Description: as §2
# [20] = tested on: Pseudomonas aeruginosa A20896; assay: MIC, aminoglycoside-resistant P. aeruginosa A20896; assay type: cell-based; conditions: Pseudomonas aeruginosa, A20896; Table 9; inactivating enzyme AAC(3)-II; Mueller-Hinton agar; read-out: MIC
# Description: as §2
# [21] = tested on: species of Streptococcus and Mycobacterium; assay: Antibacterial activity (MIC), overall, Streptococcus and Mycobacterium, Table 8; assay type: cell-based
# Description: as §2
# [22] = tested on: resistant strains which produce APH(3') or AAC(3); assay: Susceptibility of aminoglycoside resistant organisms (MIC), overall, Table 9; assay type: cell-based; conditions: several resistant strains which produce APH(3') or AAC(3)
# Description: as §2
# [23] = tested on: Escherichia coli Juhl; assay: Experimental systemic infection in mice, E. coli Juhl; assay type: in vivo; conditions: Escherichia coli, 96 h, im, single treatment, 4 days, read-out: PD50
# Description: (§3) The in vivo activity of Bu-2659A was assessed by experimental systemic infection in mice. The pathogenic bacteria used in the in vivo tests were E. coli Juhl, K. pneumoniae D-11, P. mirabilis A9906, S. aureus Smith and S. pyogenes A20201. Mice were challenged intraperitoneally with approximately 100×LD50 dose of the pathogens in a 5% suspension of hog gastric mucin (American Laboratories, Omaha, Neb.). A single intramuscular treatment with the antibiotic was given immediately after the bacterial challenge. […] Neomycin was comparatively tested as a reference compound. […] In terms of PD50 value Bu-2659A was about one-half as active as neomycin against infections with S. aureus and S. pyogenes.
# [24] = tested on: Klebsiella pneumoniae D-11; assay: Experimental systemic infection in mice, K. pneumoniae D-11; assay type: in vivo; conditions: Klebsiella pneumoniae, D11, 96 h, im, single treatment, 4 days, read-out: PD50
# Description: as §3
# [25] = tested on: Staphylococcus aureus Smith; assay: Experimental systemic infection in mice, S. aureus Smith; assay type: in vivo; conditions: Staphylococcus aureus, 96 h, im, single treatment, 4 days, read-out: PD50
# Description: as §3
# [26] = tested on: Streptococcus pyogenes A20201; assay: Experimental systemic infection in mice, S. pyogenes A20201; assay type: in vivo; conditions: Streptococcus pyogenes, A20201, 96 h, im, single treatment, 4 days, read-out: PD50
# Description: as §3
# [27] = tested on: E. coli Juhl, K. pneumoniae D-11, P. mirabilis A9906, S. aureus Smith and S. pyogenes A20201; assay: Experimental systemic infection in mice, overall; assay type: in vivo
# Description: as §3
smiles,measurement,setting,value
"NC[C@@H]1O[C@H](O[C@H]2[C@@H](O)[C@H](O[C@@H]3[C@@H](O)[C@H](O)C[C@H](N)[C@H]3O[C@H]3O[C@H](CN)[C@@H](O)[C@H](O)[C@H]3N)O[C@@H]2CO)[C@H](N)[C@@H](O)[C@@H]1O [Bu-2659A, 1-deamino-1-hydroxyneomycin B]",MIC,[1],6.3 µg/mL
same,MIC,[2],3.1 µg/mL
same,MIC,[3],0.2 µg/mL
same,MIC,[4],0.4 µg/mL
same,MIC,[5],0.8 µg/mL
same,MIC,[6],1.6 µg/mL
same,MIC,[7],0.8 µg/mL
same,MIC,[8],3.1 µg/mL
same,MIC,[9],1.6 µg/mL
same,MIC,[10],3.1 µg/mL
same,MIC,[11],25 µg/mL
same,MIC,[12],50 µg/mL
same,MIC,[13],50 µg/mL
same,MIC,[14],0.4 µg/mL
same,MIC,[15],> 100 µg/mL
same,MIC,[16],1.6 µg/mL
same,MIC,[17],25 µg/mL
same,MIC,[18],50 µg/mL
same,MIC,[19],6.3 µg/mL
same,MIC,[20],> 100 µg/mL
same,"activity against Streptococcus and Mycobacterium, in words",[21],equivalent activity
same,"activity against aminoglycoside-resistant strains, in words",[22],"more active than neomycin, paromomycin and ribostamycin"
same,ED50,[23],3.1 mg/kg
same,ED50,[24],1.1 mg/kg
same,ED50,[25],0.63 mg/kg
same,ED50,[26],50 mg/kg
same,"protection in mice, in words",[27]; five experimental infections,excellent protection
same,"in vivo activity relative to neomycin, in terms of PD50",[27]; infections with S. aureus and S. pyogenes,about one-half
same,"in vivo activity compared with neomycin, in words",[27]; infections with three gram-negative bacteria,comparable to that of neomycin
